Experimental data from patent US20080027113A1, “Methods of Using and Compositions Comprising Immunomodulatory Compounds for Treatment and Management of Macular Degeneration” (priority 2003, published 2008).

Assays:
TNF-α production [1] = assay: Inhibition of TNF-α production following LPS-stimulation of human PBMC; type: cell-based; settings: for inhibition of LPS-stimulated production of TNF-α by PBMC: result in words; for IC50: human PBMC, LPS-stimulated, read-out: IC50 for inhibiting production of TNF-α following LPS-stimulation of PBMC
IL1β production = assay: LPS-stimulated production of IL1β by PBMC; settings: result in words
IL6 production = assay: LPS-stimulated production of IL6 by PBMC; type: cell-based; settings: result in words
[2] = tested on: patients with macular degeneration; assay: Clinical study in patients with macular degeneration, adjuvant to photodynamic therapy with verteporfin; type: in vivo, human; settings: about 10 mg/day for 20 weeks as adjuvant to verteporfin photodynamic therapy
Experimental: Immunomodulatory compounds are administered in an amount of about 0.1 to about 25 mg per day to patients with macular degeneration. In a specific embodiment, clinical studies are performed with forty patients with macular degeneration, who are divided into two groups. The first group receives conventional treatment for closing the leaking choroidal vessels (characteristic of this disease) by photodynamic therapy with verteporfin. Ophthalmol 1999 (117): 1329-1345.
Progressive visual loss follows which requires the photodynamic therapy to be repeated.

IL10 production = assay: Production of anti-inflammatory cytokine IL10 by PBMC; type: cell-based; settings: result in words
TNF-α production [3] = assay: Inhibition of TNF-α production following LPS-stimulation of human whole blood; type: cell-based; settings: LPS-stimulated, read-out: IC50 for inhibiting production of TNF-α following LPS-stimulation of human whole blood

Nc1cccc2c1CN(C1CCC(=O)NC1=O)C2=O (stereo not shown)
inhibition of LPS-stimulated production of TNF-α by PBMC (TNF-α production [1]): dose-dependent inhibition | IC50 (TNF-α production [1]): ~100 nM | inhibition of LPS-stimulated production of IL1β by PBMC (IL1β production): dose-dependent inhibition | inhibition of LPS-stimulated production of IL6 by PBMC (IL6 production): dose-dependent inhibition | effect on neovascular cascade / duration of photodynamic therapy effect [2]: sufficiently hindered | production of the anti-inflammatory cytokine IL10 (IL10 production): increased production | IC50 (TNF-α production [3]): ~480 nM

Nc1cccc2c1C(=O)N(C1CCC(=O)NC1=O)C2=O (stereo not shown)
inhibition of LPS-stimulated production of TNF-α by PBMC (TNF-α production [1]): dose-dependent inhibition | IC50 (TNF-α production [1]): ~24 nM | inhibition of LPS-stimulated production of IL1β by PBMC (IL1β production): dose-dependent inhibition | inhibition of LPS-stimulated production of IL6 by PBMC (IL6 production): dose-dependent inhibition | production of the anti-inflammatory cytokine IL10 (IL10 production): increased production | IC50 (TNF-α production [3]): ~25 nM
